# Molecular target: T1, PRMT5 (Homo sapiens, UniProt O14744)
# T1 construct: endogenous in cells; host or cells: MCF-7
# Assay: PRMT5 Cell Target Engagement (TE) Assay
# Format: cell-based
# Settings: MCF-7 cells, 3 days treatment, nuclear SDMA by high content imaging
# Excerpt: The PRMT5 TE assay is a biomarker assay for identifying compounds that inhibit symmetric dimethylation of arginine (SDMA) of PRMT5 substrates. The following substrates have been reported for PRMT5: Histone H2A and H4 R3, Histone H3 R2, Histone H3 R8, spliceosome Sm proteins, ribosomal protein RPS10, p53, FEN1, nucleoplasmin, nucleolin, EGFR and EBNA. The assay will focus on detecting symmetrically dimethylated nuclear proteins using high content imaging technology. Detection of the expression of symmetrically dimethylated nuclear proteins is through a mixture of primary rabbit monoclonal antibodies to SDMA (CST 13222), which in turn recognized by an Alexafluor 488 dye-conjugated anti-rabbit IgG secondary antibody. The IN Cell Analyzer 2200 or Opera-Phenix measures nuclear Alexafluor 488 fluorescent dye intensity that is directly related to the level of expression of symmetrically dimethylated nuclear proteins at the single cell level. Nuclear AF488 dye intensities are compared to the mean value for DMSO treated cells (MIN) to report percent of inhibition for each compound-treated well.
# In this assay, the cell potency (EC50) of each compound was determined from a ten point (1:3 serial dilution; top compound concentration of 10000 nM) titration curve using the following outlined procedure. Each well of a BD falcon collagen coated black/clear bottom 384-well plate was seeded with 4000 MCF-7 cells in 30 μl media and allowed to attach for 5 hours. Media is ATCC-formulated Eagle's Minimum Essential Medium, Catalog No. 30-2003. The following components were added to the base medium: 0.01 mg/mL human recombinant insulin; fetal bovine serum to a final concentration of 10%. Additional 30 μl of media containing 2× compounds were added to each well. Cells were treated for 3 days in 37° C. CO2 incubator. On day 3, cells were fixed with Cytofix, permeabilized with 0.4% Triton-X-100/Cytofix, and washed with D-PBS without Ca/Mg. Cells were blocked with Licor Odessey blocking reagent for 1 hour at room temperature, followed by incubation with anti-SDMA (1:1000) antibody at 4° C. overnight. 1° antibody was removed, followed by three washings with DPBS without Ca/Mg and 0.05% Tween20. Hoechst (5 μg/mL), Cell Mask deep stain (1:2000) and Alexa488-conjugated goat anti-rabbit IgG (2 μg/mL) was added for 1 hour at room temperature. A final washing step (three washes) was performed before sealing plate for imaging on In Cell Analyzer 2200 or Opera-Phenix. Images from analyzer were uploaded to Columbus for image analysis. IC50 values were determined by 4 parameters robust fit of percent fluorescence units vs. (Log10) compound concentrations.
# T1 sequence (O14744 whole entry): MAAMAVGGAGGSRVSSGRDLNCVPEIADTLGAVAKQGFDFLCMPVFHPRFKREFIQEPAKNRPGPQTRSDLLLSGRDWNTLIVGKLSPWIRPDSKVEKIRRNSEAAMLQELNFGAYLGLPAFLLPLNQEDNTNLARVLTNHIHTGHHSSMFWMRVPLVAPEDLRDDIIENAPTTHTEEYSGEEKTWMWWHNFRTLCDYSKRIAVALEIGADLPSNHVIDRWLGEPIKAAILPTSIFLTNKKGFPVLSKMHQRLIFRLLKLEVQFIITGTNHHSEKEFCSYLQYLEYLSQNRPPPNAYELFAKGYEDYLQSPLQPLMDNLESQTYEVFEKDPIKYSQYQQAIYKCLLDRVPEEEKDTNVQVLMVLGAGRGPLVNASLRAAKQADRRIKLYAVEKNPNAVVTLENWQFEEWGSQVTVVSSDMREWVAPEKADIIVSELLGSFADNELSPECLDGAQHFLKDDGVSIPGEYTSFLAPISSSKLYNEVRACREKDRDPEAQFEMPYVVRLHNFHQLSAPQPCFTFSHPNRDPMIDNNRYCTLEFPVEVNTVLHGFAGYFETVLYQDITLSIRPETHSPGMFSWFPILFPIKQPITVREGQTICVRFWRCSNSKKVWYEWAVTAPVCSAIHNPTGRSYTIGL
# T1 sequence (Q9BQA1 whole entry partner): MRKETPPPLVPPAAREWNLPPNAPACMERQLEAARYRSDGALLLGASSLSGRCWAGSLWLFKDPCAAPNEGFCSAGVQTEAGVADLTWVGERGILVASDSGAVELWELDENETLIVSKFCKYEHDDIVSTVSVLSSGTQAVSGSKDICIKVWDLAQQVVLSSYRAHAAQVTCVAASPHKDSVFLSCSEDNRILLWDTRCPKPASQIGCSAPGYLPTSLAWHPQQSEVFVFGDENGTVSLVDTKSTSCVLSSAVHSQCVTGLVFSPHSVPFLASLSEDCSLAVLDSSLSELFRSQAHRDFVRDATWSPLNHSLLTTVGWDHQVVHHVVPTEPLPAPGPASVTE
row,Structure (SMILES),EC50
1,"C[C@@]1(O)[C@@H]([C@H](O)c2cc(C(F)F)c(F)c3c2CNCC3)O[C@@H](n2ccc3c(N)ncnc32)[C@@H]1O [Example 8, (2R,3S,4R,5R)-5-(4-amino-7H-pyrrolo[2,3-d]pyrimidin-7-yl)-2-((R)-(6-(difluoromethyl)-5-fluoro-1,2,3,4-tetrahydroisoquinolin-8-yl)(hydroxy)methyl)-3-methyltetrahydrofuran-3,4-diol]",65 nM
2,"C[C@@]1(O)[C@@H]([C@@H](O)c2cc(C(F)F)c(F)c3c2CNCC3)O[C@@H](n2ccc3c(N)ncnc32)[C@@H]1O [Example 9, (2R,3S,4R,5R)-5-(4-amino-7H-pyrrolo[2,3-d]pyrimidin-7-yl)-2-((S)-(6-(difluoromethyl)-5-fluoro-1,2,3,4-tetrahydroisoquinolin-8-yl)(hydroxy)methyl)-3-methyltetrahydrofuran-3,4-diol]",157 nM
3,"C[C@]1(O)[C@@H](O)[C@H](n2ccc3c(N)ncnc32)O[C@@H]1[C@](C)(O)c1cc(C(F)F)c(F)c2c1CNCC2 [Example 10, (2R,3S,4R,5R)-5-(4-amino-7H-pyrrolo[2,3-d]pyrimidin-7-yl)-2-((R)-1-(6-(difluoromethyl)-5-fluoro-1,2,3,4-tetrahydroisoquinolin-8-yl)-1-hydroxyethyl)-3-methyltetrahydrofuran-3,4-diol]",5.6 nM
4,"C[C@@]1(O)[C@@H]([C@@H](O)c2ccccc2)O[C@@H](n2ccc3c(N)ncnc32)[C@@H]1O [Example 12, 7-[(5S)-3-C-methyl-5-C-phenyl-beta-D-ribofuranosyl]-7H-pyrrolo[2,3-d]pyrimidin-4-amine]",> 10000 nM
5,"C[C@@]1(O)[C@@H]([C@H](O)c2cccc(Cl)c2)O[C@@H](n2ccc3c(N)ncnc32)[C@@H]1O [Example 16, 7-[(5R)-5-C-(3-chlorophenyl)-3-C-methyl-beta-D-ribofuranosyl]-7H-pyrrolo[2,3-d]pyrimidin-4-amine]",80 nM
6,"C[C@@]1(O)[C@@H]([C@H](O)c2ccc(F)cc2)O[C@@H](n2ccc3c(N)ncnc32)[C@@H]1O [Example 24, 7-[(5R)-5-C-(4-fluorophenyl)-3-C-methyl-beta-D-ribofuranosyl]-7H-pyrrolo[2,3-d]pyrimidin-4-amine]",474 nM
7,"Cc1ccc([C@@H](O)[C@H]2O[C@@H](n3ccc4c(N)ncnc43)[C@H](O)[C@]2(C)O)cc1 [Example 30, 7-[(5R)-3-C-methyl-5-C-(4-methylphenyl)-beta-D-ribofuranosyl]-7H-pyrrolo[2,3-d]pyrimidin-4-amine]",3170 nM
8,"Cc1ccc([C@H](O)[C@H]2O[C@@H](n3ccc4c(N)ncnc43)[C@H](O)[C@]2(C)O)cc1 [Example 31, 7-[(5S)-3-C-methyl-5-C-(4-methylphenyl)-beta-D-ribofuranosyl]-7H-pyrrolo[2,3-d]pyrimidin-4-amine]",> 10000 nM
9,"C[C@@]1(O)[C@@H]([C@H](O)c2cc(F)c(F)c(F)c2)O[C@@H](n2ccc3c(N)ncnc32)[C@@H]1O [Example 34, 7-[(5R)-3-C-methyl-5-C-(3,4,5-trifluorophenyl)-beta-D-ribofuranosyl]-7H-pyrrolo[2,3-d]pyrimidin-4-amine]",227 nM
10,"C[C@@]1(O)[C@@H]([C@@H](O)c2cc(F)c(F)c(F)c2)O[C@@H](n2ccc3c(N)ncnc32)[C@@H]1O [Example 35, 7-[(5S)-3-C-methyl-5-C-(3,4,5-trifluorophenyl)-beta-D-ribofuranosyl]-7H-pyrrolo[2,3-d]pyrimidin-4-amine]",> 10000 nM
11,"COc1cccc([C@@H](O)[C@H]2O[C@@H](n3ccc4c(N)ncnc43)[C@H](O)[C@]2(C)O)c1 [Example 36, 7-[(5R)-5-C-(3-methoxyphenyl)-3-C-methyl-beta-D-ribofuranosyl]-7H-pyrrolo[2,3-d]pyrimidin-4-amine]",997 nM
12,"COc1cccc([C@H](O)[C@H]2O[C@@H](n3ccc4c(N)ncnc43)[C@H](O)[C@]2(C)O)c1 [Example 37, 7-[(5S)-5-C-(3-methoxyphenyl)-3-C-methyl-beta-D-ribofuranosyl]-7H-pyrrolo[2,3-d]pyrimidin-4-amine]",> 10000 nM
13,"Cc1ccccc1[C@@H](O)[C@H]1O[C@@H](n2ccc3c(N)ncnc32)[C@H](O)[C@]1(C)O [Example 40, 7-[(5R)-3-C-methyl-5-C-(2-methylphenyl)-beta-D-ribofuranosyl]-7H-pyrrolo[2,3-d]pyrimidin-4-amine]",2270 nM

# Now from value to compound:
row,EC50,Structure (SMILES)
1,202 nM,"C[C@@]1(O)[C@@H]([C@H](O)c2ccccc2)O[C@@H](n2ccc3c(N)ncnc32)[C@@H]1O [Example 11, 7-[(5R)-3-C-methyl-5-C-phenyl-beta-D-ribofuranosyl]-7H-pyrrolo[2,3-d]pyrimidin-4-amine]"
2,> 10000 nM,"C[C@@]1(O)[C@@H]([C@@H](O)c2ccc(Cl)c(Cl)c2)O[C@@H](n2ccc3c(N)ncnc32)[C@@H]1O [Example 14, 7-[(5S)-5-C-(3,4-dichlorophenyl)-3-C-methyl-beta-D-ribofuranosyl]-7H-pyrrolo[2,3-d]pyrimidin-4-amine]"
3,14 nM,"C[C@@]1(O)[C@@H]([C@H](O)c2cc(Cl)cc(Cl)c2)O[C@@H](n2ccc3c(N)ncnc32)[C@@H]1O [Example 18, 7-[(5R)-5-C-(3,5-dichlorophenyl)-3-C-methyl-beta-D-ribofuranosyl]-7H-pyrrolo[2,3-d]pyrimidin-4-amine]"
4,141 nM,"C[C@@]1(O)[C@@H]([C@H](O)c2cccc(F)c2)O[C@@H](n2ccc3c(N)ncnc32)[C@@H]1O [Example 20, 7-[(5R)-5-C-(3-fluorophenyl)-3-C-methyl-beta-D-ribofuranosyl]-7H-pyrrolo[2,3-d]pyrimidin-4-amine]"
5,59 nM,"C[C@@]1(O)[C@@H]([C@H](O)c2cc(F)cc(F)c2)O[C@@H](n2ccc3c(N)ncnc32)[C@@H]1O [Example 22, 7-[(5R)-5-C-(3,5-difluorophenyl)-3-C-methyl-beta-D-ribofuranosyl]-7H-pyrrolo[2,3-d]pyrimidin-4-amine]"
6,34 nM,"C[C@@]1(O)[C@@H]([C@H](O)c2cc(F)cc(Cl)c2)O[C@@H](n2ccc3c(N)ncnc32)[C@@H]1O [Example 26, 7-[(5R)-5-C-(3-chloro-5-fluorophenyl)-3-C-methyl-beta-D-ribofuranosyl]-7H-pyrrolo[2,3-d]pyrimidin-4-amine]"
7,2740 nM,"COc1ccc([C@@H](O)[C@H]2O[C@@H](n3ccc4c(N)ncnc43)[C@H](O)[C@]2(C)O)cc1 [Example 32, 7-[(5R)-5-C-(4-methoxyphenyl)-3-C-methyl-beta-D-ribofuranosyl]-7H-pyrrolo[2,3-d]pyrimidin-4-amine]"
8,> 10000 nM,"COc1ccc([C@H](O)[C@H]2O[C@@H](n3ccc4c(N)ncnc43)[C@H](O)[C@]2(C)O)cc1 [Example 33, 7-[(5S)-5-C-(4-methoxyphenyl)-3-C-methyl-beta-D-ribofuranosyl]-7H-pyrrolo[2,3-d]pyrimidin-4-amine]"
9,166 nM,"Cc1cccc([C@@H](O)[C@H]2O[C@@H](n3ccc4c(N)ncnc43)[C@H](O)[C@]2(C)O)c1 [Example 38, 7-[(5R)-3-C-methyl-5-C-(3-methylphenyl)-beta-D-ribofuranosyl]-7H-pyrrolo[2,3-d]pyrimidin-4-amine]"
10,> 10000 nM,"Cc1cccc([C@H](O)[C@H]2O[C@@H](n3ccc4c(N)ncnc43)[C@H](O)[C@]2(C)O)c1 [Example 39, 7-[(5S)-3-C-methyl-5-C-(3-methylphenyl)-beta-D-ribofuranosyl]-7H-pyrrolo[2,3-d]pyrimidin-4-amine]"

# From patent publication US12552826B2, “PRMT5 inhibitors” (Merck Sharp & Dohme LLC, priority 2018, dated 2026)
